# Like-named read-outs stand apart in the source and are kept apart here.
# Experiments:
# focal ischemic stroke = assay: Rat model of focal ischemic stroke (vessel occlusion); assay type: in vivo, rats; details: i.p. 2 mg/kg 30 min prior to vessel occlusion and 2 mg/kg 3 hr post-occlusion
# [1] = test system: maximal electroshock-induced seizures; assay: Maximal electroshock-induced seizures in rats; assay type: in vivo; details: Rattus norvegicus, po, read-out: ED50, maximal electroshock-induced seizures
# thermal nociception [2] = assay type: in vivo, rats; details: 25 mg/kg i.p.
# Description: In these experiments, a 52° C. hot plate was used as the nociceptive stimulus.
# dopamine uptake site = target: T1, dopamine uptake site (Cavia porcellus, UniProt H0WCX4); assay: Dopamine uptake binding assay: [3H]WIN-35,428 binding to guinea pig striatal membranes
# T1 construct: from tissue; host or cells: guinea pig striatal membranes (per the assay title)
# in vivo = details: Frings, mouse, in vivo, po
# Description: (§1) In this assay, Frings and CF1 mice were injected with test compound and placed on a knurled rod which rotated at a speed of 6 rpm. The ability of the mice to maintain equilibrium for long periods of time was determined; those mice that were unable to maintain equilibrium on the rotorod for 1 min in each of 3 trials were considered impaired.
# motor performance = assay: Acute motor impairment (rotorod) in mice; details: Frings mice, i.p.
# Description: as §1
# NMDA receptor = assay: Inhibition of NMDA/glycine-induced increases in intracellular calcium in cultured rat cerebellar granule cells (RCGC); assay type: cell-based; details: NMDA/glycine-induced increases in intracellular calcium, cultured rat cerebellar granule cells; read-out: IC50 (μM) vs. NMDA
# [3] = Motor toxicity (TD50) in rats; details: rat, in vivo, po
# thermal nociception [4] = assay type: in vivo, rats; details: 25 mg/kg i.p.; remark: listed apart in the source
# Description: In this standard assay, the thermal nociceptive stimulus was 52° C. warm water with the latency to tail flick or withdrawal taken as the endpoint.
# [5] = target: NMDA receptor-ionophore complex (site labeled by [3H]MK-801); assay: Inhibition of [3H]MK-801 binding in rat cortical/hippocampal washed membrane preparations; details: read-out: IC50 (μM) vs. [3H]MK-801; rat cortical/hippocampal washed membranes
# serotonin uptake site = target: T2, serotonin uptake site (Rattus norvegicus, UniProt P31652); assay: Serotonin uptake binding assay: [3H]citalopram binding to rat forebrain membranes
# T2 construct: from tissue; host or cells: rat forebrain membranes (per the assay title)
# sound-induced seizures = assay: Sound-induced seizures in Frings mice (reflex epilepsy); assay type: in vivo; details: Mus musculus, Frings mice
# [6] = target: T3, norepinephrine uptake site (Rattus norvegicus, UniProt Q63380); assay: Norepinephrine uptake binding assay: [3H]desipramine binding to rat cortical membranes
# T3 construct: from tissue; host or cells: rat cortical membranes (per the assay title)
# [7] = test system: mean arterial blood pressure; details: i.v.
# [8] = test system: central muscarinic cholinergic receptor; assay type: binding, rat
# T1 sequence (H0WCX4 1-619): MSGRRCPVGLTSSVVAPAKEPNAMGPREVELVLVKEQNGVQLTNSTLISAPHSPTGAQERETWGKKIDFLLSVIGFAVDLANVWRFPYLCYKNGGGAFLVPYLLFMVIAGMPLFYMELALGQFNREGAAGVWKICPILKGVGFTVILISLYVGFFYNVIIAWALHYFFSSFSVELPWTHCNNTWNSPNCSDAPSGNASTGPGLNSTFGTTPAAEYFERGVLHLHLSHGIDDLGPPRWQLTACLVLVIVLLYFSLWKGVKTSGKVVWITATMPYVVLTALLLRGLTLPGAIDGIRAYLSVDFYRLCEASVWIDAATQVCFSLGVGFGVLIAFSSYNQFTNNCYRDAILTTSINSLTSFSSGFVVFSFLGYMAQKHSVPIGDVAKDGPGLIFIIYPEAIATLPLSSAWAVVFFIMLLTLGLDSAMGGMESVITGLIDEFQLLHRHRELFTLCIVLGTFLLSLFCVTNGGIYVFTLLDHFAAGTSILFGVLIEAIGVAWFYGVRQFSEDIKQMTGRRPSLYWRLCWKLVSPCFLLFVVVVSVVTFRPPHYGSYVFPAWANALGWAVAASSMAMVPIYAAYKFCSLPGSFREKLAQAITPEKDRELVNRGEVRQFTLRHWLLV
# T2 sequence (P31652 whole entry): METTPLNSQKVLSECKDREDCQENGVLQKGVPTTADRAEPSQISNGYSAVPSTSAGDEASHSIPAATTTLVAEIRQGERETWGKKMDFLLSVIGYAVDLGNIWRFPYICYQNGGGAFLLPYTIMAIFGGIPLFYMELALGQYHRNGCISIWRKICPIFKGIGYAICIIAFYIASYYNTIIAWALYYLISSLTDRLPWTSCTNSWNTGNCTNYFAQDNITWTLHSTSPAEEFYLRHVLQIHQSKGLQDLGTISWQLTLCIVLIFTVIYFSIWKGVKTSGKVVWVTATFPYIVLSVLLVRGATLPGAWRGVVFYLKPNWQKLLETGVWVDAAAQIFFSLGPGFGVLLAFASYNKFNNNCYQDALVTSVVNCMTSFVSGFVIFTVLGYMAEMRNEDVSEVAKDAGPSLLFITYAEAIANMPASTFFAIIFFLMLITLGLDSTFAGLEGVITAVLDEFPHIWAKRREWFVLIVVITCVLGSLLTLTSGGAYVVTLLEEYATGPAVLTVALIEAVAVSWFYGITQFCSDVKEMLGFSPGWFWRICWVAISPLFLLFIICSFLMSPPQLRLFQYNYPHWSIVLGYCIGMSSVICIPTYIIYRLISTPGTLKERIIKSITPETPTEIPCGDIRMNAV
# T3 sequence (Q63380 1-617): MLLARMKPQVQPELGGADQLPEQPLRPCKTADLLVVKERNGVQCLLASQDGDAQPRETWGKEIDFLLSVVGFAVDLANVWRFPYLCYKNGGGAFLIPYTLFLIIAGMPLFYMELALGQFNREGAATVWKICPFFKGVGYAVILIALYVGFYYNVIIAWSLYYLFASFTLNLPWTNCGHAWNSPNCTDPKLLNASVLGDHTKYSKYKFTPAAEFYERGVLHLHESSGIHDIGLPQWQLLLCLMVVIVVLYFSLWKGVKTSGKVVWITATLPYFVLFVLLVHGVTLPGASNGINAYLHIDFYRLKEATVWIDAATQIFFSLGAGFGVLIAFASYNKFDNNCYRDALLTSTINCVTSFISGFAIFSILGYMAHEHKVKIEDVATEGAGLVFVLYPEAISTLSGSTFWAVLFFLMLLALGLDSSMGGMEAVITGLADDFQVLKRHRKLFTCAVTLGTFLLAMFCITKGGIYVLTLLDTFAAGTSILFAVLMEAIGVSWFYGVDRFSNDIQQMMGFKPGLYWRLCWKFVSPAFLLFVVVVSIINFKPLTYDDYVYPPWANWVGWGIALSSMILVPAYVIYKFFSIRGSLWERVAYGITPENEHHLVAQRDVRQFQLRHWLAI
smiles,measurement,setting,value
"C[C@H](N)CC(c1cccc(F)c1)c1cccc(F)c1 [Compound 50, 3,3-bis(3-fluorophenyl)-1-methyl-1-propylamine]",neuroprotectant activity in a rat model of focal ischemic stroke,focal ischemic stroke,significant neuroprotectant activity
same,ED50,[1],28 mg/kg
same,"analgesic activity, rat 52° C. hot plate test",thermal nociception [2],no significant analgesic activity
same,"Monoamine uptake binding assays: dopamine uptake binding assay, percent block",dopamine uptake site; at 0.1 μM,17% at
same,"Monoamine uptake binding assays: dopamine uptake binding assay, percent block",dopamine uptake site; at 10 μM,0.1^f93% at
same,TD50,in vivo,18.9 mg/kg
same,TD50 (motor impairment),motor performance,17.4 mg/kg
same,IC50,NMDA receptor,0.089 µM
same,TD50,[3],20 mg/kg
same,"analgesic activity, rat 48° C. tail flick test",thermal nociception [4],no significant analgesic activity
same,IC50,[5],0.762 µM
same,"Monoamine uptake binding assays: serotonin uptake binding assay, percent block",serotonin uptake site; at 0.1 μM,10^g75% at
same,"Monoamine uptake binding assays: serotonin uptake binding assay, percent block",serotonin uptake site; at 10 μM,0.1^h97% at
same,ED50,sound-induced seizures; ip,2.7 mg/kg
same,ED50,sound-induced seizures; oral,9 mg/kg
same,"Monoamine uptake binding assays: norepinephrine uptake binding assay, percent block",[6]; at 0.1 μM,10% at
same,"Monoamine uptake binding assays: norepinephrine uptake binding assay, percent block",[6]; at 10 μM,0.1^g78% at
same,no significant cardiovascular activity in anesthetized rats at doses up to,[7],up to 5 mg/kg
same,Central muscarinic cholinergic receptor: percent block of [3H]QNB binding,[8]; at 0.1 μM,11% at
same,Central muscarinic cholinergic receptor: percent block of [3H]QNB binding,[8]; at 10 μM,0.184% at

# — patent US6750244B2, “Compounds active at a novel site on receptor-operated calcium channels useful for treatment of neurological disorders and diseases” (NPS Pharmaceuticals, Inc., priority 1993, dated 2004)
